Results reported in US8017600B2, “Imidazole compounds” (Janssen Pharmaceutica NV, priority 2004, dated 2011).

Assays:
human eosinophils = assay: Inhibition of histamine-induced eosinophil shape change (gated autofluorescence forward scatter assay); details: for Fold Change: eosinophil shape change, 10 μM antagonist; for effect on histamine-induced shape change: human eosinophils, result in words
[1] = target: T1, human histamine H4 receptor (Homo sapiens, UniProt Q9H3N8); assay: Binding assay on recombinant human histamine H4 receptor (3H-histamine displacement); details: membranes of SK-N-MC or COS7 cells expressing human H4 receptor, Cheng-Prusoff
T1 construct: expressed in transfected cells; host or cells: SK-N-MC cells or COS7 cells, transient transfection; cell membranes
Procedure: SK-N-MC cells or COS7 cells were transiently transfected with pH4R and grown in 150 cm^2 tissue culture dishes. Cells were washed with saline solution, scraped with a cell scraper and collected by centrifugation (1000 rpm, 5 min). Cell membranes were prepared by homogenization of the cell pellet in 20 mM Tris-HCl with a polytron tissue homogenizer for 10 sec at high speed. Homogenate was centrifuged at 1000 rpm for 5 min at 4° C. The supernatant was then collected and centrifuged at 20,000×g for 25 min at 4° C. The final pellet was resuspended in 50 mM Tris-HCl. Cell membranes were incubated with ^3H-histamine (5-70 nM) in the presence or absence of excess histamine (10,000 nM). Incubation occurred at room temperature for 45 min. Membranes were harvested by rapid filtration over Whatman GF/C filters and washed 4 times with ice-cold 50 mM Tris HCl. Filters were then dried, mixed with scintillant and counted for radioactivity. SK-N-MC or COS7 cells expressing human histamine H4 receptor were used to measure the affinity of binding of other compounds and their ability to displace ^3H-ligand binding by incubating the above-described reaction in the presence of various concentrations of inhibitor or compound to be tested.

T1 sequence (Q9H3N8 whole entry): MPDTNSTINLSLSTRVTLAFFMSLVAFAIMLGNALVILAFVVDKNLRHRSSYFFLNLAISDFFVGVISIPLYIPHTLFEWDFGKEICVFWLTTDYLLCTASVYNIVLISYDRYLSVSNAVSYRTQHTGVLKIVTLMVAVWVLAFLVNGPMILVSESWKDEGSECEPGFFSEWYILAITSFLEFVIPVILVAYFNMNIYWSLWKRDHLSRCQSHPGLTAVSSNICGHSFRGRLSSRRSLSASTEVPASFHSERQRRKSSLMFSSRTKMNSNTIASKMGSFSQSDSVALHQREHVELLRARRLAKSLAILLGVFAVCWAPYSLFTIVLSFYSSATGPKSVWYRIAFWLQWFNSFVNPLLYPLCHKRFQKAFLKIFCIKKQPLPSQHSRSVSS

For `CN1CCN(C(=O)c2cc3cc(Cl)ccc3[nH]2)CC1` [H4 Antagonist, (5-chloro-1H-indol-2-yl)-(4-methyl-piperazin-1-yl)-methanone], which IC50 (human eosinophils; Homo sapiens, Eosinophil, read-out: IC50 of inhibition of histamine-induced eosinophil shape change) is on record?
Its IC50 is 270 nM.

Which results are given for `CN(C)CCOC(c1ccccc1)c1ccccc1` [diphenhydramine]?
Fold Change (human eosinophils; histamine 0 μM): 1.00; Fold Change (human eosinophils; histamine 0.01 μM): 1.03; Fold Change (human eosinophils; histamine 0.1 μM): 1.18; Fold Change (human eosinophils; histamine 1 μM): 1.50; Fold Change (human eosinophils; histamine 10 μM): 1.63; effect on histamine-induced shape change (human eosinophils): did not alter the histamine-induced shape change

Which results are given for `CNC(=C[N+](=O)[O-])NCCSCc1ccc(CN(C)C)o1` [ranatidine]?
Fold Change (human eosinophils; histamine 0 μM): 1.00; Fold Change (human eosinophils; histamine 0.01 μM): 1.04; Fold Change (human eosinophils; histamine 0.1 μM): 1.21; Fold Change (human eosinophils; histamine 1 μM): 1.49; Fold Change (human eosinophils; histamine 10 μM): 1.64; effect on histamine-induced shape change (human eosinophils): did not alter the histamine-induced shape change

With `Cc1nc(-c2ccc(OCCCC3CCN(C)CC3)cc2Cl)[nH]c1CC(C)C` [Example 40, 4-{3-[3-Chloro-4-(5-isobutyl-4-methyl-1H-imidazol-2-yl)-phenoxy]-propyl}-1-methyl-piperidine] as the compound, how does the Ki [1] read?
The Ki was 93 nM.

Which Ki [1] does the source give for `Cc1ccc(-c2[nH]c(-c3ccc(OCCCC4CCN(C)CC4)cc3Cl)nc2-c2ccc(Cl)cc2)cc1` [Example 22, 4-(3-{3-Chloro-4-[4-(4-chloro-phenyl)-5-p-tolyl-1H-imidazol-2-yl]-phenoxy}-propyl)-1-methyl-piperidine] here?
Its Ki is 29 nM.

For `Cc1[nH]c(-c2ccc(OCCCN3CCN(C)CC3)nc2)nc1-c1cccc(C(F)(F)F)c1` [Example 33, 1-Methyl-4-(3-{5-[5-methyl-4-(3-trifluoromethyl-phenyl)-1H-imidazol-2-yl]-pyridin-2-yloxy}-propyl)-piperazine], which Ki [1] is on record?
The Ki was 63 nM.

Which Ki [1] does the source give for `Cc1[nH]c(-c2ccc(OCCCN3CCN(C)CC3)nc2)nc1-c1ccc(C(F)(F)F)cc1` [Example 32, 1-Methyl-4-(3-{5-[5-methyl-4-(4-trifluoromethyl-phenyl)-1H-imidazol-2-yl]-pyridin-2-yloxy}-propyl)-piperazine] here?
The Ki was 230 nM.

`CN1CCCN(CCCOc2ccc(-c3nc(-c4ccc(Br)cc4)c(-c4ccc(Br)cc4)[nH]3)c(Cl)c2)CC1` [Example 9, 1-(3-{4-[4,5-Bis-(4-bromo-phenyl)-1H-imidazol-2-yl]-3-chloro-phenoxy}-propyl)-4-methyl-[1,4]diazepane] was tested. Which Ki [1] did it give?
Its Ki is 11 nM.

How did the Ki [1] turn out when `Cc1[nH]c(-c2ccc(OCCCN3CCCN(C)CC3)c(Cl)c2)nc1-c1ccccc1` [Example 11, 1-{3-[2-Chloro-4-(5-methyl-4-phenyl-1H-imidazol-2-yl)-phenoxy]-propyl}-4-methyl-[1,4]diazepane] was run?
The Ki was 70 nM.

How did the Ki [1] turn out when `Cc1[nH]c(-c2cccc(OCCCCC3CCN(C)CC3)c2)nc1-c1ccc(Cl)cc1` [Example 34, 4-(4-{3-[4-(4-Chloro-phenyl)-5-methyl-1H-imidazol-2-yl]-phenoxy}-butyl)-1-methyl-piperidine] was run?
The Ki was 33 nM.

How did the Ki [1] turn out when `COc1cccc(-c2nc(-c3ccc(OCCCN4CCN(C)CC4)c(F)c3)[nH]c2-c2cccc(OC)c2)c1` [Example 8, 1-(3-{4-[4,5-Bis-(3-methoxy-phenyl)-1H-imidazol-2-yl]-2-fluoro-phenoxy}-propyl)-4-methyl-piperazine] was run?
Its Ki is 60 nM.

`CN1CCN(CCCOc2ccc(-c3nc(-c4ccc(F)cc4)c(-c4ccc(F)cc4)[nH]3)c(Cl)c2)CC1` [Example 6, 1-(3-{4-[4,5-Bis-(4-fluoro-phenyl)-1H-imidazol-2-yl]-3-chloro-phenoxy}-propyl)-4-methyl-piperazine] was tested. Which Ki [1] did it give?
Its Ki is 29 nM.

For `CN1CCN(CCCOc2ccc(-c3nc(-c4ccc(Br)cc4)c(-c4ccc(Br)cc4)[nH]3)c(Cl)c2)CC1` [Example 1, 1-(3-{4-[4,5-Bis-(4-bromo-phenyl)-1H-imidazol-2-yl]-3-chloro-phenoxy}-propyl)-4-methyl-piperazine], which Ki [1] is on record?
The Ki was 14 nM.

With `Cc1cc(OCCCC2CCN(C)CC2)ccc1-c1nc(-c2ccc(Cl)cc2)c(C)[nH]1` [Example 47, 4-(3-{4-[4-(4-Chloro-phenyl)-5-methyl-1H-imidazol-2-yl]-3-methyl-phenoxy}-propyl)-1-methyl-piperidine] as the compound, how does the Ki [1] read?
The Ki was 33 nM.

How did the Ki [1] turn out when `CN1CCC(CCCOc2ccc(-c3nc(-c4ccc(F)cc4)c(-c4ccc(F)cc4)[nH]3)c(Cl)c2)CC1` [Example 20, 4-(3-{4-[4,5-Bis-(4-fluoro-phenyl)-1H-imidazol-2-yl]-3-chloro-phenoxy}-propyl)-1-methyl-piperidine] was run?
The Ki was 39 nM.

With `Cc1[nH]c(-c2ccc(OCCCC3CCN(C)CC3)cc2Cl)nc1-c1ccc(Cl)cc1` [Example 19, 4-(3-{3-Chloro-4-[4-(4-chloro-phenyl)-5-methyl-1H-imidazol-2-yl]-phenoxy}-propyl)-1-methyl-piperidine] as the compound, how does the Ki [1] read?
Its Ki is 22 nM.

With `Cc1[nH]c(-c2ccnc(OCCCCC3CCN(C)CC3)c2)nc1-c1ccc(Cl)cc1` [Example 39, 4-[4-(4-Chloro-phenyl)-5-methyl-1H-imidazol-2-yl]-2-[4-(1-methyl-piperidin-4-yl)-butoxy]-pyridine] as the compound, how does the Ki [1] read?
Its Ki is 230 nM.

`Cc1[nH]c(-c2cccc(OCCCCC3CCN(C)CC3)c2)nc1-c1ccc(C(F)(F)F)cc1` [Example 41, 1-Methyl-4-(4-{3-[5-methyl-4-(4-trifluoromethyl-phenyl)-1H-imidazol-2-yl]-phenoxy}-butyl)-piperidine] was tested. Which Ki [1] did it give?
Its Ki is 250 nM.
